# Test results: patent US20080058373A1, “Compositions and Methods for Treating or Preventing Glaucoma or Progression Thereof” (priority 2006, published 2008)
# “And” between values parts separate entries of the source, which are not always exact repeats. Equal values may be shown once. “Also recorded” adds a separate entry of the source.
# Legend:
# protein in aqueous humor = experiment: Protein measurement in aqueous humor, rabbit paracentesis model; assay type: in vivo; conditions: for Protein levels in aqueous humor, Mean: second paracentesis, group mean; for Protein levels in aqueous humor (raw data): samples collected at the second paracentesis, single eyes
# Procedure: (§1) Each rabbit was placed in a restraint device and tagged with the alphanumeric code. The formulations were instilled (50 μl) into the conjunctival sac of both eyes 180, 120, 90 and 30 min before the first paracentesis; then 15, 30, 90 min after the first paracentesis. To perform the first paracentesis the animals were anaesthetized by intravenous injection of 5 mg/kg Zoletil® (Virbac; 2.5 mg/kg tiletamine HCl and 2.5 mg/kg zolazepam HCl) and one drop of local anesthetic (Novesina®, Novartis) was administered to the eye. Anterior chamber paracentesis was performed with a 26 G needle attached to a tuberculin syringe; the needle was introduced into the anterior chamber through the cornea, taking care not to damage the tissues. Two hours after the first paracentesis, the animals were sacrificed with 0.4 ml Tanax® (Intervet International B.V.) and the second paracentesis was performed. About 100 μl of aqueous humor were removed at the second paracentesis. Aqueous humor was immediately split in four aliquots and stored at −80° C. until analysis. Then both eyes were enucleated and the iris-ciliary body was carefully excised, placed in polypropylene tubes, and stored at −80° C. until analysis.
# For protein concentration determination in the aqueous humor we used the Protein Quantification Kit (Fluka; Cat.No. 77371; Lot.No. 1303129). Five microliters of aqueous humor were diluted to 100 μl with water. Twenty microliters of samples and of standards were load into a 96-well plate and recorded in a plate layout. Samples were treated following the assay procedure described in the kit. A microplate reader (GDV, Italy; model DV 990 B/V6) set at 670 nm was used for making the calibration and analyzing the samples.
# [1] = system: primary human corneal epithelial cells; experiment: IL-1β-stimulated cytokine production in primary HCECs (30-cytokine Luminex kit); conditions: for Concentration at which a significant inhibitory effect was observed on IL-6 / Concentration at which a significant inhibitory effect was observed on MCP-1 / Concentration at which a significant inhibitory effect was observed on TGF-α / Concentration at which a significant inhibitory effect was observed on TNF-α: 10 ng/ml IL-1β-stimulated HCECs
# Procedure: Primary HCECs were seeded in 24-well plates. […] Each treatment was performed in triplicate. Media were collected and used for determination of cytokine content using a 30-cytokine Luminex kit. Cell viability was determined by alamarBlue assay (LP06013).
# Median fluorescence intensity (MFI) was used to obtain the concentration of each cytokines in pg/ml based on the standard curve of each cytokine assayed by Luminex. The linear range of the standard curve for each cytokine was used for determination of cytokine concentration. Duplicate values for each sample were averaged. Data were expressed as mean±SD. Statistical analysis was performed using one-way ANOVA-Dunnett's test, and P<0.05 was considered statistically significant.
# Leukocytes (PMN) = Leukocytes (PMN) measurement in aqueous humor, rabbit paracentesis model; assay type: in vivo; conditions: for PMN numbers in aqueous humor, Mean: second paracentesis, group mean
# Procedure: as §1
# For the determination of the number of leukocytes we used a haemocytometer (Improved Neubauer Chamber; Bright-line, Hausser Scientific) and a Polyvar 2 microscope (Reichert-Jung).
# [2] = system: New Zealand White rabbits; experiment: Mortality/morbidity in the rabbit IOP study; assay type: in vivo; conditions: for Day of Death (day euthanized or found dead) / Recorded Notes (mortality): individual rabbits; for Mortality (animals found dead or euthanized prior to study completion/number of animals in group): topical right eye 4 × daily, Day 33; for Mortality: rabbits that died or were euthanized between Days 11 and 33: right eye four times daily, Days 1-31
# Procedure: On Days 1-31, animals received daily topical doses of the appropriate test article into the right eye. Animals were dosed four times per day, with doses administered 2 hours apart. Doses were administered using a calibrated 50-μL pipette. The eyelids were held close for 10 seconds immediately following dosing. The time of each dose administration was recorded.
# Animals determined to be moribund were euthanized with an intravenous injection of commercial euthanasia solution.
# Prostaglandin E2 (PGE2) = Prostaglandin E2 (PGE2) measurement in aqueous humor, rabbit paracentesis model; assay type: in vivo; conditions: second paracentesis, group mean
# Procedure: as §1
# For the quantitative determination of PGE2 in the aqueous humor we used the PGE2 Immunoassay kit (R&D Systems; Cat.No. KGE004; Lot.No. 240010). Eleven microliters or 16 μl of aqueous humor were diluted to 110 μl or 160 μl with the calibrator diluent solution provided with the kit. One hundred microliters of samples and of standards were load into a 96-well plate and recorded in a plate layout. Samples were treated following the assay procedure described in the kit. A microplate reader (GDV, Italy; model DV 990 B/V6) set at 450 nm (wavelength correction at 540 nm) was used for making the calibration and analyzing the samples.
# Myeloperoxidase (MPO) = Myeloperoxidase (MPO) activity in iris-ciliary body, rabbit paracentesis model; assay type: in vivo; conditions: for MPO activity in iris-ciliary body, Mean / MPO activity in iris-ciliary body: samples collected after the second paracentesis; for MPO activity in iris-ciliary body, Mean: group mean; for Δ/min (mean of the slope of the line recorded every 15 sec for 5 min): 100 μl supernatant aliquot diluted to 3 ml; for Δ/min (mean of the slope of the line recorded every 15 sec for 5 min) / MPO activity in iris-ciliary body: individual eyes
# Procedure: 3.9 g of NaH2PO4 2H2O were dissolved in a volumetric flask to 500 ml with water. The pH was adjusted to pH=6 with 3N NaOH.
# 0.5 g of hexa-decyl-trimethyl-ammonium bromide was dissolved in 100 ml phosphate buffer.
# The solution was prepared freshly. Ten microliters of H2O2 (30 wt. %) were diluted to 1 ml with water (solution A). 7.5 mg o-dianisidine 2HCl was dissolved in 45 ml of phosphate buffer and 75 μl of solution A were added.
# as §1
# The activity of MPO was measured as previously described by Williams et al.[5] The iris-ciliary bodies were carefully dried, weighed and immersed in 1 ml of hexa-decyl-trimethyl-ammonium bromide solution. Then, the samples were sonicated for 10 sec on ice by a ultrasound homogenizer (HD 2070, Bandelin electronic), freeze-thawed three times, sonicated for 10 sec and centrifuged at 14,000 g for 10 min to remove cellular debris. An aliquot of the supernatant (40-200 μl) was diluted to 3 ml with the o-dianisidine 2HCl/H2O2 solution. The change in absorbance at 460 nm was continuously monitored for 5 min by a spectrophotometer (UV/Vis Spectrometer Lambda EZ 201; Perkin Elmer). The slope of the line (Δ/min) was determined for each sample and used to calculate the number of units of MPO in the tissue as follows:
# Values were expressed as units of MPO/g of tissue.
# [3] = IL-1β-stimulated HCECs, 18 h, P<0.05
# [4] = 1 mg/g (0.05 mg/dose) 4 × daily, Group D
# [5] = 10 mg/g (0.5 mg/dose) 4 × daily, Group B
# [6] = 0.1% (0.05 mg/dose) 4 × daily, Group A
smiles,measurement,setting,value
Cc1ccc2c(NCC(O)(CC(C)(C)c3cc(F)cc4c3OCC4)C(F)(F)F)cccc2n1 (stereo not shown),"Protein levels in aqueous humor, Mean",protein in aqueous humor; 0.1% topical,33.667 mg/mL
same,Protein levels in aqueous humor (raw data),"protein in aqueous humor; 0.5% topical, listed as BOL",33.98 mg/mL and 33.65 mg/mL and 19.99 mg/mL and 27.11 mg/mL and 19.72 mg/mL and 36.35 mg/mL and 27.71 mg/mL and 32.24 mg/mL
same,"Protein levels in aqueous humor, Mean",protein in aqueous humor; 0.5% topical,28.844 mg/mL
same,"Protein levels in aqueous humor, Mean",protein in aqueous humor; 1% topical,21.435 mg/mL
same,Concentration at which a significant inhibitory effect was observed on IL-6,"[1]; 18 h, P<0.05",1 nM
same,Concentration at which a significant inhibitory effect was observed on MCP-1,"[1]; 18 h, P<0.05",10 nM
same,Concentration at which a significant inhibitory effect was observed on TGF-α,"[1]; 18 h, P<0.05",10 nM
same,Concentration at which a significant inhibitory effect was observed on TNF-α,"[1]; 18 h, P<0.05",10 nM
same,Potency versus dexamethasone for inhibition of G-CSF production,[1]; IL-1β-stimulated HCECs,more potent than dexamethasone
same,"Potency versus dexamethasone for inhibition of GM-CSF, IL-8 and RANTES production",[1]; IL-1β-stimulated HCECs,somewhat less potent than dexamethasone
same,"Potency versus dexamethasone for inhibition of IL-6, IL-7, TGF-α, TNF-α, VGEF and MCP-1 production",[1]; IL-1β-stimulated HCECs,comparable potency
same,"Inhibition of IL-1β-stimulated production of 6 cytokines (IL-6, IL-7, MCP-1, TGF-α, TNF-α and VEGF)","[1]; IL-1β-stimulated HCECs, 18 h",significantly inhibited
same,Concentration at which a significant inhibitory effect was observed on G-CSF,[1]; [3],10 µg/mL
same,Concentration at which a significant inhibitory effect was observed on GM-CSF,[1]; [3],10 nM
same,Concentration at which a significant inhibitory effect was observed on RANTES,[1]; [3],no significant effect
same,"PMN numbers in aqueous humor, Mean",Leukocytes (PMN); 0.1% topical,28.333 number/μl
same,"PMN numbers in aqueous humor, Mean",Leukocytes (PMN); 0.5% topical,21.250 number/μl
same,PMN numbers in aqueous humor (raw data),"Leukocytes (PMN); 1% topical, samples collected at the second paracentesis, single eyes, listed as BOL",30 number/μl and 20 number/μl and 40 number/μl
same,"PMN numbers in aqueous humor, Mean",Leukocytes (PMN); 1% topical,28.750 number/μl
same,Day of Death (day euthanized or found dead),[2]; [4],29
same,Recorded Notes (mortality),[2]; [4],Found dead.
same,Mortality (animals found dead or euthanized prior to study completion/number of animals in group),"[2]; 1 mg/g, 0.05 mg/dose",1/10^(6)
same,Mortality: rabbits that died or were euthanized between Days 11 and 33,[2]; 5 mg/g suspension ([…]),two of ten
same,Mortality (animals found dead or euthanized prior to study completion/number of animals in group),"[2]; 5 mg/g, […]",2/10^(5)
same,Day of Death (day euthanized or found dead),[2]; [5],11
same,Recorded Notes (mortality),[2]; [5],Found dead. Noted on Day 9 to have significant diarrhea and
same,Mortality: rabbits that died or were euthanized between Days 11 and 33,[2]; 10 mg/g suspension (0.5 mg/dose),one of ten
same,Mortality (animals found dead or euthanized prior to study completion/number of animals in group),"[2]; 10 mg/g, 0.5 mg/dose",1/10^(4)
same,"Levels of PGE2 in aqueous humor, Mean",Prostaglandin E2 (PGE2); 0.1% topical,1.452 ng/mL
same,"Levels of PGE2 in aqueous humor, Mean",Prostaglandin E2 (PGE2); 0.5% topical,1.384 ng/mL
same,"Levels of PGE2 in aqueous humor, Mean",Prostaglandin E2 (PGE2); 1% topical,2.168 ng/mL
same,"MPO activity in iris-ciliary body, Mean",Myeloperoxidase (MPO); 0.1% topical,0.971 MPO Unit/g
same,Δ/min (mean of the slope of the line recorded every 15 sec for 5 min),"Myeloperoxidase (MPO); 0.1% treatment, listed as BOL",0.051 and 0.042 (2×) and 0.045 and 0.050 and 0.031 (2×) and 0.036
same,MPO activity in iris-ciliary body,"Myeloperoxidase (MPO); 0.1% treatment, listed as BOL",1.04 Unit/g and 1.00 Unit/g and 1.14 Unit/g and 1.06 Unit/g and 1.22 Unit/g and 0.61 Unit/g and 1.05 Unit/g and 0.65 Unit/g
same,"MPO activity in iris-ciliary body, Mean",Myeloperoxidase (MPO); 0.5% topical,0.775 MPO Unit/g
same,Δ/min (mean of the slope of the line recorded every 15 sec for 5 min),"Myeloperoxidase (MPO); 0.5% treatment, listed as BOL",0.044 and 0.040 and 0.031 and 0.049 and 0.033 and 0.034 and 0.022 and 0.026
same,MPO activity in iris-ciliary body,"Myeloperoxidase (MPO); 0.5% treatment, listed as BOL",0.85 Unit/g and 0.93 Unit/g and 0.79 Unit/g and 1.03 Unit/g and 0.75 Unit/g and 0.74 Unit/g and 0.54 Unit/g and 0.58 Unit/g
same,"MPO activity in iris-ciliary body, Mean",Myeloperoxidase (MPO); 1% topical,0.542 MPO Unit/g
same,Δ/min (mean of the slope of the line recorded every 15 sec for 5 min),"Myeloperoxidase (MPO); 1% treatment, listed as BOL",0.024 and 0.033 and 0.017 and 0.018 (2×) and 0.016 and 0.052 and 0.013
same,MPO activity in iris-ciliary body,"Myeloperoxidase (MPO); 1% treatment, listed as BOL",0.66 Unit/g and 0.68 Unit/g and 0.49 Unit/g and 0.40 Unit/g and 0.34 Unit/g and 1.02 Unit/g and 0.31 Unit/g and 0.43 Unit/g
"C[C@@H]1C[C@H]2[C@@H]3CCC4=CC(=O)C=C[C@]4(C)[C@@]3(F)[C@@H](O)C[C@]2(C)[C@@]1(O)C(=O)CO [dexamethasone, reference compound]",Protein levels in aqueous humor (raw data),"protein in aqueous humor; 0.1% topical, listed as Dex",31.31 mg/mL and 31.81 mg/mL and 35.95 mg/mL and 37.15 mg/mL and 32.12 mg/mL and 32.40 mg/mL
same,"Protein levels in aqueous humor, Mean",protein in aqueous humor; 0.1% topical,33.457 mg/mL
same,Concentration at which a significant inhibitory effect was observed on IL-6,"[1]; 18 h, P<0.05",1 nM
same,Concentration at which a significant inhibitory effect was observed on MCP-1,"[1]; 18 h, P<0.05",10 nM
same,Concentration at which a significant inhibitory effect was observed on TGF-α,"[1]; 18 h, P<0.05",10 nM
same,Concentration at which a significant inhibitory effect was observed on TNF-α,"[1]; 18 h, P<0.05",10 nM
same,Concentration at which a significant inhibitory effect was observed on RANTES,[1]; [3],1 µM
same,"PMN numbers in aqueous humor, Mean",Leukocytes (PMN); 0.1% topical,30.000 number/μl
same,Day of Death (day euthanized or found dead),[2]; [6],25 (2×) and 27 (2×) and 23 and 13
same,Recorded Notes (mortality),[2]; [6],Euthanized due to severe hemorrhagic diarrhea. Noted to be; also recorded: Euthanized. Very sick/poor health; left (untreated) eye; also recorded: Euthanized due to severe profuse hemorrhagic diarrhea; also recorded: Found dead. No rigor mortis present
same,Mortality (animals found dead or euthanized prior to study completion/number of animals in group),"[2]; 0.1%, 0.05 mg/dose",6/10^(3)
same,"Levels of PGE2 in aqueous humor, Mean",Prostaglandin E2 (PGE2); 0.1% topical,2.263 ng/mL
same,"MPO activity in iris-ciliary body, Mean",Myeloperoxidase (MPO); 0.1% topical,0.618 MPO Unit/g
same,Δ/min (mean of the slope of the line recorded every 15 sec for 5 min),"Myeloperoxidase (MPO); 0.1% treatment, listed as Dex",0.029 and 0.031 and 0.064 and 0.023 (2×) and 0.019 and 0.024 and 0.021
same,MPO activity in iris-ciliary body,"Myeloperoxidase (MPO); 0.1% treatment, listed as Dex",0.71 Unit/g and 0.60 Unit/g and 1.32 Unit/g and 0.48 Unit/g (2×) and 0.39 Unit/g and 0.45 Unit/g and 0.51 Unit/g
